Six compounds from patent EP0358177A1, “Medicine with a synergistic antimycosic and antiviral activity” (HOECHST AKTIENGESELLSCHAFT, priority 1988, dated 1990) can be followed below.

Each structure is given as a SMILES string. In brackets after ≈: the same amount, converted by molar mass. Like-named read-outs stand apart in the source and are kept apart here.

What all share (format): cell-based
One assay relates to C. albicans. As to the kind of experiment: Minimal inhibitory concentration (MHK), microdilution test in Neopepton Dextrose Bouillon. The note with it: Candida albicans, read-out: MHK. An excerpt: (§1) Die minimale Hemmkonzentration (MHK), das heißt, diejenige Konzentration bei der das Wachstum der Pilze noch makroskopisch sichtbar gehemmt ist, wurde im Mitrkoverdünnungstest (Mikrodilutiontest in Neopepton Dextrose Boullion, siehe: "Comparison of two different techniques in primary micrological screening": Standard serial dilution test and microtitration test; W. Raether, M. Uphoff und G. Staut, mycosen, 27 (1984), p. 15 - 28) geprüft. Das Inokulum pro Weil betrug bei Candida albicans 10^3 cfu/ml und bei Microsporum canis 1,6 10^5 cfu/ml (cfu = colony forming units).
(§2) Zunächst wurde die minimale Hemmkonzentration eines jeden Kombinationspartners (Ciclopiroxolamin bzw. Nigericin oder Nigericinderivat) allein festgestellt (Cyclopyoxolamin: 2 u.g/ml; Nigericin und alle Nigericinderivate: >128 u.g/ml). Anschließend wurde die MHK für Ciclopiroxolamin in Anwesenheit von jeweils 64 µg/ml, 16 u.g/ml und 1 µg/ml eines Nigericinderivats geprüft, um festzustellen inwieweit der Zusatz des Nigericinderivats die Wirkung von Ciclopiroxolamin verstärken konnte.
(In general: In broth dilution the organism is exposed to a series of concentrations in liquid medium.)

The test system of the next assay is M. canis. The description is as above. The settings on record: Microsporum canis, read-out: MHK.
Description: as §1, §2

The test system of assay [1] is Microsporum Canis und Candida albicans. As to the kind of experiment: Minimal inhibitory concentration (MHK), microdilution test, text statements not separated by test strain. The note with it: each combination partner alone; test strain not specified; read-out: minimale Hemmkonzentration eines jeden Kombinationspartners allein.
Description: as §1, §2

On to `Cc1cc(C2CCCCC2)n(O)c(=O)c1` [Ciclopiroxolamin, Ethanolamin des 6-Cyclohexyl-1-Hydroxy-4-methyl-2(1H)-Pyridons, reference compound], for which the MIC in the assay on C. albicans (C. albicans, substance alone) amounted to 2 µg/mL (≈ 9.65 µM); in the assay with M. canis (M. canis, substance alone) it was 2 µg/mL (≈ 9.65 µM); in assay [1], 2 µg/mL.

With `CO[C@@H]1C[C@@H](C[C@H]2CC[C@H](C)[C@H]([C@@H](C)C(=O)O)O2)O[C@]2(O[C@](C)([C@H]3CC[C@@](C)([C@@H]4O[C@@H]([C@H]5O[C@@](O)(CO)[C@H](C)C[C@@H]5C)C[C@@H]4C)O3)C[C@H]2C)[C@@H]1C` [Nigericin, reference compound], the MIC with C. albicans (C. albicans, substance alone) stood at 128 µg/mL (≈ 177 µM); with M. canis (M. canis, substance alone), 128 µg/mL (≈ 177 µM).

For `COC1CC(CC2CCC(C)C(C(C)C(=O)O)O2)OC2(OC(C)(C3CCC(C)(C4OC(C5OC(O)(COC(=O)CCOc6ccccc6)C(C)CC5C)CC4C)O3)CC2C)C1C` (stereo not shown) [Beispiel 20], the MIC in the assay on C. albicans and with M. canis was 128 µg/mL (≈ 147 µM) in each case.

Consider `COC1CC(CC2CCC(C)C(C(C)C(=O)O)O2)OC2(OC(C)(C3CCC(C)(C4OC(C5OC(O)(COC(=O)Cc6ccccc6)C(C)CC5C)CC4C)O3)CC2C)C1C` (stereo not shown) [Beispiel 19], for which the MIC in the assay with C. albicans (C. albicans, substance alone) amounted to 128 µg/mL (≈ 152 µM); with M. canis (M. canis, substance alone), 128 µg/mL (≈ 152 µM).

Take `COC1CC(CC2CCC(C)C(C(C)C(=O)O)O2)OC2(OC(C)(C3CCC(C)(C4OC(C5OC(O)(COC(=O)CCC(=O)O)C(C)CC5C)CC4C)O3)CC2C)C1C` (stereo not shown) [Beispiel 17]: the MIC in the assay with C. albicans and in the assay on M. canis was 128 µg/mL (≈ 155 µM) in each case.

In the case of `COC1CC(CC2CCC(C)C(C(C)C(=O)O)O2)OC2(OC(C)(C3CCC(C)(C4OC(C5OC(O)(COC(=O)c6ccccc6)C(C)CC5C)CC4C)O3)CC2C)C1C` (stereo not shown) [Beispiel 18], the MIC in the assay on C. albicans and in the assay on M. canis was 128 µg/mL (≈ 154 µM) each time.
